Data reported in publication PMC2631241 (Journal of combinatorial chemistry, 2008).

target: human serum albumin (HSA) (Homo sapiens, UniProt P02768); experiment: 1D 1H NMR line-broadening titration of ligand with HSA
Sequence (P02768 25-609): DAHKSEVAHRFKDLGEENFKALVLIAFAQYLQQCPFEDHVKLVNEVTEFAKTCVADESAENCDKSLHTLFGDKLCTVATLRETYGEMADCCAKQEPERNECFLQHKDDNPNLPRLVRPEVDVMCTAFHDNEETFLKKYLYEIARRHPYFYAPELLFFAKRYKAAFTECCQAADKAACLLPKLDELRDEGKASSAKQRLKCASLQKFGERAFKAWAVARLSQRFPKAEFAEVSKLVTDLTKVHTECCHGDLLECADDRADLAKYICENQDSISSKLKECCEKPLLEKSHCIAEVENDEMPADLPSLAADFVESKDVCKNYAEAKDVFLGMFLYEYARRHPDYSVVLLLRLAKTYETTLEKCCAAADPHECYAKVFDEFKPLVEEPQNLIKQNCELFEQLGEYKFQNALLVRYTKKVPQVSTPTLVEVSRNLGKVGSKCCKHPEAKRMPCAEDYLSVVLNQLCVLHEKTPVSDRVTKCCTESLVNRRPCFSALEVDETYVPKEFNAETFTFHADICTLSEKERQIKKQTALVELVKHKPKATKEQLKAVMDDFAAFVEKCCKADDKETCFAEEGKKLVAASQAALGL

Row | Kd | SMILES
1 | 1.7 ± 3.4 µM | CCOC(=O)C(C)(C)Oc1ccc(Cl)cc1 [Clofibrate, clofibrate]
2 | 36.8 ± 6.5 µM | O=S1(=O)OC(c2ccc(O)cc2)(c2ccc(O)cc2)c2ccccc21 [Phenol Red, phenol red]
3 | 132 ± 12.5 µM | O=C1NC(=O)C(c2ccccc2)(c2ccccc2)N1 [Phenytoin, phenytoin]
